Results taken from patent US20230100838A1 (Revolution Medicines, Inc., priority 2019, published 2023).

Legend:
Type in all cases: binding
[1] = biological target: T1, GDP-loaded K-Ras (1-169) C51S, C80L, C118S (Homo sapiens, UniProt P01116, C118S/C51S/C80L); assay: K-Ras WT (GDP) cross-linking assay (conjugate formation, TOF mass spectrometry); details: Table 5; percent covalently modified K-Ras by MS; room temperature; typical compound conc. 2, 10, 25 μM, endpoints 1 and 24 h
T1 construct: GDP-loaded K-Ras (1-169) C51S, C80L, C118S
Outline: (§1)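 5 μM protein (final, from 50 μM) in HEPES/NaCl/MgCl2 buffer pH 7.4 with compound typically at 2, 10 and 25 μM, room temperature, 1 and 24 h endpoints; formic acid quench. Intact-protein LC–TOF MS; percent modification is covalent adduct peak height over total K-Ras peak height.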

[2] = biological target: K-Ras G12S (Homo sapiens, UniProt P01116, G12S); assay: K-Ras G12S cross-linking assay (comparable procedure, conjugate formation, TOF mass spectrometry); details: Table 5, percent covalently modified K-Ras by MS
Outline: as §1

[3] = biological target: T2, GDP-loaded K-Ras (1-169) G12D, C51S, C80L, C118S (Homo sapiens, UniProt P01116, C118S/C51S/C80L/G12D); assay: K-Ras G12D(GDP) cross-linking assay (conjugate formation, TOF mass spectrometry); details: Table 5; percent covalently modified K-Ras by MS; room temperature; typical compound conc. 2, 10, 25 μM, endpoints 1 and 24 h
T2 construct: GDP-loaded K-Ras (1-169) G12D, C51S, C80L, C118S
Outline: as §1

WT x-linking (%) [1]: ++ (20 < x ≤ 100)
G12S x-linking (%) [2]: ++ (10 < x ≤ 100)
G12D x-linking (%) [3]: +++ (40 < x ≤ 100)
Compound: Cc1cccc2cccc(N3CCc4c(nc(OC[C@@H]5CCCN5C)nc4N4CCC(N=C=NCCCn5ccnc5)CC4)C3)c12 [Example 88, N-(3-(1H-imidazol-1-yl)propyl)-N-(1-(7-(8-methylnaphthalen-1-yl)-2-(((S)-1-methylpyrrolidin-2-yl)methoxy)-5,6,7,8-tetrahydropyrido[3,4-d]pyrimidin-4-yl)piperidin-4-yl)methanediimine]
